From ChEMBL document CHEMBL1201862, “PubChem BioAssay data set” (2004)
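These data come from cells grown in 96-well plates and exposed to compound for 48 hours at five concentrations. GI50 = concentration required for 50% inhibition of growth.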 Calls of active or inactive are those of the source. No stated cut-off is given here; in the data, active = GI50 up to about 1.1 µM and inactive = higher.

Experiments:
Assay in all cases: inhibition of tumour cell growth, NCI panel, 48 h
T47D = system: T47D
MCF7 = system: MCF7
A549 = system: A549
LOX IMVI = system: LOX IMVI
Malme-3M = system: Malme-3M
M14 = system: M14
SF-539 = system: SF-539
786-0 = system: 786-0
SW-620 = system: SW-620
HOP-92 = system: HOP-92
UACC-62 = system: UACC-62
MDA-MB-231 = system: MDA-MB-231
HL-60 = system: HL-60
HOP-62 = system: HOP-62
OVCAR-4 = system: OVCAR-4
DU-145 = system: DU-145
KM12 = system: KM12
ACHN = system: ACHN
K562 = system: K562
RPMI-8226 = system: RPMI-8226

| Compound | GI50 (T47D) | GI50 (MCF7) | GI50 (A549) | GI50 (LOX IMVI) | GI50 (Malme-3M) | GI50 (M14) | GI50 (SF-539) | GI50 (786-0) | GI50 (SW-620) | GI50 (HOP-92) | GI50 (UACC-62) | GI50 (MDA-MB-231) | GI50 (HL-60) | GI50 (HOP-62) | GI50 (OVCAR-4) | GI50 (DU-145) | GI50 (KM12) | GI50 (ACHN) | GI50 (K562) | GI50 (RPMI-8226) |
| --- | --- | --- | --- | --- | --- | --- | --- | --- | --- | --- | --- | --- | --- | --- | --- | --- | --- | --- | --- | --- |
| COc1cc2c3cc1Oc1c(OC)c(OC)cc4c1C(Cc1ccc(O)c(c1)Oc1ccc(cc1)CC3N(C)CC2)N(C)CC4 (stereo unspecified) | 27.8 µM (inactive) | 45.9 µM (inactive) | 26.3 µM (inactive) | 58.7 µM (inactive) | 59.2 µM (inactive) | 33.7 µM (inactive) | 24.8 µM (inactive) | > 100 µM (inactive) | 69.8 µM (inactive) | 26.2 µM (inactive) | 44.6 µM (inactive) | 35.6 µM (inactive) | 28.3 µM (inactive) | 64.6 µM (inactive) | 29 µM (inactive) | 37.8 µM (inactive) | 28.1 µM (inactive) | 17.3 µM (inactive) | 7.78 µM (inactive) | – |
| Cc1cc(C)c2c(c1)C/C(=C\c1ccccc1C(=O)O)C2=O | 35.2 µM (inactive) | 78.2 µM (inactive) | 68.4 µM (inactive) | > 100 µM (inactive) | > 100 µM (inactive) | > 100 µM (inactive) | 39.4 µM (inactive) | > 100 µM (inactive) | > 100 µM (inactive) | 81.8 µM (inactive) | – | > 100 µM (inactive) | > 100 µM (inactive) | > 100 µM (inactive) | > 100 µM (inactive) | > 100 µM (inactive) | > 100 µM (inactive) | > 100 µM (inactive) | > 100 µM (inactive) | > 100 µM (inactive) |
| O=C1CC2C=CC(O)C(C1)C2 (stereo unspecified) | > 100 µM (inactive) | > 100 µM (inactive) | – | > 100 µM (inactive) | > 100 µM (inactive) | > 100 µM (inactive) | > 100 µM (inactive) | > 100 µM (inactive) | > 100 µM (inactive) | – | > 100 µM (inactive) | > 100 µM (inactive) | > 100 µM (inactive) | > 100 µM (inactive) | > 100 µM (inactive) | > 100 µM (inactive) | > 100 µM (inactive) | > 100 µM (inactive) | > 100 µM (inactive) | > 100 µM (inactive) |
| C=C1CC2(CCOc3ccc(Cl)cc32)OC1=O (stereo unspecified) | 4.93 µM (inactive) | 0.598 µM (active) | 13.5 µM (inactive) | 2.44 µM (inactive) | – | 2.54 µM (inactive) | 0.284 µM (active) | 2.15 µM (inactive) | 1.26 µM (inactive) | 3.48 µM (inactive) | 13.1 µM (inactive) | 6.44 µM (inactive) | 1.93 µM (inactive) | 5.35 µM (inactive) | 1.91 µM (inactive) | 12.7 µM (inactive) | 13.7 µM (inactive) | 4.86 µM (inactive) | 2.55 µM (inactive) | 0.667 µM (active) |
| O=C1CSC(c2cccc(Cl)c2)N1c1ccc(-n2c(-c3ccccc3)nc3ccccc3c2=O)cc1 (stereo unspecified) | 10 µM (inactive) | 30.3 µM (inactive) | > 100 µM (inactive) | 46.2 µM (inactive) | > 100 µM (inactive) | – | 67.1 µM (inactive) | > 100 µM (inactive) | > 100 µM (inactive) | 2.69 µM (inactive) | 21.4 µM (inactive) | 21.1 µM (inactive) | > 100 µM (inactive) | > 100 µM (inactive) | 18.7 µM (inactive) | > 100 µM (inactive) | 21.3 µM (inactive) | 79.3 µM (inactive) | 51.6 µM (inactive) | 52.4 µM (inactive) |
| CN(CCNC(=O)c1cn(C)c2c1ccc1cc(Cl)ccc12)CCNC(=O)c1cn(C)c2c1ccc1cc(Cl)ccc12 | 2.13 µM (inactive) | 1.86 µM (inactive) | 1.92 µM (inactive) | 5.71 µM (inactive) | 2.21 µM (inactive) | 1.59 µM (inactive) | 4.78 µM (inactive) | 1.99 µM (inactive) | 5.28 µM (inactive) | 5.85 µM (inactive) | 5.97 µM (inactive) | 6.62 µM (inactive) | 3.26 µM (inactive) | 1.79 µM (inactive) | 1.66 µM (inactive) | 1.73 µM (inactive) | 1.67 µM (inactive) | 5.25 µM (inactive) | 5.96 µM (inactive) | – |
| Oc1ccc(SCc2ccc(NCc3ccccc3)cc2)cc1 | 14.7 µM (inactive) | 29.8 µM (inactive) | 22.1 µM (inactive) | 19.9 µM (inactive) | 31.7 µM (inactive) | 19.4 µM (inactive) | 36.6 µM (inactive) | 0.869 µM (active) | 36.4 µM (inactive) | 43.4 µM (inactive) | 23.4 µM (inactive) | 39.9 µM (inactive) | 14.6 µM (inactive) | 46.6 µM (inactive) | 18.1 µM (inactive) | 32 µM (inactive) | 29.2 µM (inactive) | 24 µM (inactive) | 31.5 µM (inactive) | – |
| Cc1ccc(/N=N/C(=NNC(=O)c2ccc(C)cc2)c2ccc(N(C)C)cc2)cc1 | 71.3 µM (inactive) | 20 µM (inactive) | 28.6 µM (inactive) | 33.4 µM (inactive) | – | 24.8 µM (inactive) | 43 µM (inactive) | 33.3 µM (inactive) | 32.2 µM (inactive) | 28.6 µM (inactive) | 10.8 µM (inactive) | 50.2 µM (inactive) | 27.5 µM (inactive) | – | 18.5 µM (inactive) | 20.8 µM (inactive) | 16.9 µM (inactive) | 66.4 µM (inactive) | 24.9 µM (inactive) | 22.3 µM (inactive) |
| CN1CCN(C(=S)N(C(=O)c2cccs2)C2CCCCC2)CC1 | > 100 µM (inactive) | > 100 µM (inactive) | > 100 µM (inactive) | > 100 µM (inactive) | > 100 µM (inactive) | > 100 µM (inactive) | – | > 100 µM (inactive) | > 100 µM (inactive) | > 100 µM (inactive) | > 100 µM (inactive) | > 100 µM (inactive) | 24.8 µM (inactive) | – | > 100 µM (inactive) | > 100 µM (inactive) | > 100 µM (inactive) | > 100 µM (inactive) | > 100 µM (inactive) | > 100 µM (inactive) |
| CCc1c[n+]([O-])c(C)cc1[N+](=O)[O-] | > 100 µM (inactive) | 90.8 µM (inactive) | 56.1 µM (inactive) | > 100 µM (inactive) | 40.1 µM (inactive) | 40.2 µM (inactive) | > 100 µM (inactive) | 97.1 µM (inactive) | 33.3 µM (inactive) | 35.8 µM (inactive) | 49.9 µM (inactive) | 22.8 µM (inactive) | > 100 µM (inactive) | > 100 µM (inactive) | – | 28 µM (inactive) | 45.4 µM (inactive) | 17.7 µM (inactive) | 48.6 µM (inactive) | 33.5 µM (inactive) |
| O=C(O)c1c2c(cc3c1CC1(Cc4ccccc4C1)C3)CCC2 | 77.1 µM (inactive) | 96.2 µM (inactive) | 35.6 µM (inactive) | 24.8 µM (inactive) | 51.3 µM (inactive) | – | > 100 µM (inactive) | 80 µM (inactive) | > 100 µM (inactive) | 14.9 µM (inactive) | > 100 µM (inactive) | 95.7 µM (inactive) | 41.4 µM (inactive) | > 100 µM (inactive) | 58.2 µM (inactive) | 66.5 µM (inactive) | 59.3 µM (inactive) | 32.7 µM (inactive) | 59.3 µM (inactive) | 33.9 µM (inactive) |
| CCCCCCCCCCCCCCNC(=O)CCC(NC(=O)c1ccc(N(C)Cc2cnc3nc(N)nc(N)c3n2)cc1)C(=O)NCCCCCCCCCCCCCC (stereo unspecified) | 8.51 µM (inactive) | 4.48 µM (inactive) | 5.45 µM (inactive) | 0.437 µM (active) | – | 0.441 µM (active) | 0.908 µM (active) | 1.28 µM (inactive) | 0.288 µM (active) | 14.8 µM (inactive) | 2.63 µM (inactive) | 8.73 µM (inactive) | 0.355 µM (active) | 9.29 µM (inactive) | 12.5 µM (inactive) | 13.9 µM (inactive) | 2.45 µM (inactive) | 6.38 µM (inactive) | < 0.0185 µM (active) | 3.07 µM (inactive) |
| CN(C)/C=N/CCN1CCOCC1 | > 100 µM (inactive) | > 100 µM (inactive) | > 100 µM (inactive) | > 100 µM (inactive) | > 100 µM (inactive) | > 100 µM (inactive) | > 100 µM (inactive) | > 100 µM (inactive) | – | > 100 µM (inactive) | > 100 µM (inactive) | > 100 µM (inactive) | > 100 µM (inactive) | > 100 µM (inactive) | > 100 µM (inactive) | > 100 µM (inactive) | – | > 100 µM (inactive) | > 100 µM (inactive) | > 100 µM (inactive) |
| CCOC(=O)Oc1cc2c(c(OC)c1OC)-c1ccc(SC)c(=O)cc1C(NC(=O)C(F)(F)F)CC2 (stereo unspecified) | 8.97 µM (inactive) | < 0.001 µM (active) | 0.00555 µM (active) | 0.00177 µM (active) | < 0.001 µM (active) | < 0.001 µM (active) | – | 0.0017 µM (active) | < 0.001 µM (active) | 0.00604 µM (active) | 0.00108 µM (active) | 0.00172 µM (active) | < 0.001 µM (active) | 0.00191 µM (active) | 2.01 µM (inactive) | 0.00258 µM (active) | 0.00258 µM (active) | 0.00224 µM (active) | < 0.001 µM (active) | < 0.001 µM (active) |
| Clc1ccc2c(NCCNC3CCCCC3)ccnc2c1 | 4.2 µM (inactive) | 4.53 µM (inactive) | 13.6 µM (inactive) | 2.67 µM (inactive) | 1.87 µM (inactive) | 1.77 µM (inactive) | – | 5.47 µM (inactive) | 12.2 µM (inactive) | 5.56 µM (inactive) | 4.28 µM (inactive) | 9.62 µM (inactive) | 2.42 µM (inactive) | 11.9 µM (inactive) | 11.6 µM (inactive) | 16.1 µM (inactive) | 6.28 µM (inactive) | 12.5 µM (inactive) | 2.12 µM (inactive) | 3.44 µM (inactive) |
